Drawing on ChEMBL document CHEMBL5647694, “Novel orally bioavailable EZH1/2 dual inhibitors with greater antitumor efficacy than an EZH2 selective inhibitor” (Cancer Sci, 2017), this text covers Activity and inhibition for two compounds.

For one test, the species on record is Homo sapiens. As to the kind of experiment: Competitive inhibition of PRC2-EZH2 (unknown origin) assessed as intensity of SAM signal using SAM as substrate at 800 uM by STD-NMR analysis (reference value: 100%). Set-up: scale not given: the % may be the effect or the level left.
For test [1], the target named is Mitogen-activated protein kinase 12 (Homo sapiens) (UniProt P53778). The test can be described thus: Inhibition of N-terminal GST-fused full length human p38gamma (1 to 367 residues) expressed in Escherichia coli expression system using Modified Erktide as substrate at 1 uM in presence of ATP by Mobility shift assay.
For test [2], the target named is Serine/threonine-protein kinase 26 (Homo sapiens) (UniProt Q9P289). As to the kind of experiment: Inhibition of N-terminal GST-fused full length human MST4 (1 to 416 residues) expressed in baculovirus expression system using Moesin-derived peptide as substrate at 1 uM in presence of ATP by Mobility shift assay.
For test [3], the target named is Serine/threonine-protein kinase WNK2 (Homo sapiens) (UniProt Q9Y3S1). The test can be described thus: Inhibition of N-terminal GST-fused human WNK2 catalytic domain (166 to 489 residues) expressed in baculovirus expression system using SPAKtide as substrate at 1 uM in presence of ATP by Mobility shift assay.
Test [4] has as its target CDC7/DBF4 (Cell division cycle 7-related protein kinase/Activator of S phase kinase) (Homo sapiens) (UniProt Q9UBU7+O00311). As to the kind of experiment: Inhibition of N-terminal GST-tagged full length human CDC7 (1 to 574 residues)/N-terminal GST-tagged ASK (1 to 674 residues) expressed in baculovirus-infected Sf21 cells using MCM2 peptide as substrate at 1 uM in presence of ATP by Mobility shift assay.

Test [5] deals with Cyclin-dependent kinase 1/cyclin B1 (Homo sapiens) (UniProt P06493+P14635). The test can be described thus: Inhibition of N-terminal GST-fused full length human CDC2 (1 to 297 residues)/N-terminal GST fused human CyclinB1 (1 to 433 residues) expressed in baculovirus-infected Sf21 cells using Modified Histone H1 as substrate at 1 uM in presence of ATP by Mobility shift assay.
In test [6] the target is Lymphokine-activated killer T-cell-originated protein kinase (Homo sapiens) (UniProt Q96KB5). As to the kind of experiment: Inhibition of N-terminal GST-fused full length human PBK (1 to 322 residues) expressed in baculovirus expression system using Histone H3 peptide as substrate at 1 uM in presence of ATP by Mobility shift assay.
For test [7], the target named is Ephrin type-B receptor 3 (Homo sapiens) (UniProt P54753). The test can be described thus: Inhibition of N-terminal GST-fused human EPHB3 cytoplasmic domain (596 to 998 residues) expressed in baculovirus-infected Sf21 cells using Blk/Lyntide as substrate at 1 uM in presence of ATP by Mobility shift assay.
Test [8] concerns the target Ribosomal protein S6 kinase beta-2 (Homo sapiens) (UniProt Q9UBS0). As to the kind of experiment: Inhibition of N-terminal GST-fused full length human p70S6Kbeta (1 to 482 residues) expressed in baculovirus expression system using S6K2 peptide as substrate at 1 uM in presence of ATP by Mobility shift assay.
Test [9] has as its target Serine/threonine-protein kinase Nek1 (Homo sapiens) (UniProt Q96PY6). The test can be described thus: Inhibition of N-terminal GST-fused human NEK1 catalytic domain (1 to 505 residues) expressed in baculovirus expression system using CDK7 peptide as substrate at 1 uM in presence of ATP by Mobility shift assay.
For test [10], the target named is Serine/threonine-protein kinase Nek6 (Homo sapiens) (UniProt Q9HC98). The test can be described thus: Inhibition of N-terminal GST-fused full length human NEK6 (1 to 313 residues) expressed in baculovirus expression system using CDK7 peptide as substrate at 1 uM in presence of ATP by Mobility shift assay.
The target of test [11] is Homeodomain-interacting protein kinase 3 (Homo sapiens) (UniProt Q9H422). The test can be described thus: Inhibition of N-terminal GST-fused human HIPK3 catalytic domain (161 to 562 residues) expressed in baculovirus expression system using DYRKtide-F as substrate at 1 uM in presence of ATP by Mobility shift assay.
The target in test [12] is Mast/stem cell growth factor receptor Kit (Homo sapiens) (UniProt P10721). As to the kind of experiment: Inhibition of N-terminal GST-tagged human KIT cytoplasmic domain (544 to 976 residues) expressed in baculovirus-infected Sf21 cells using Srctide as substrate at 1 uM in presence of ATP by Mobility shift assay.
In test [13] the target is ALK tyrosine kinase receptor (Homo sapiens) (UniProt Q9UM73). As to the kind of experiment: Inhibition of N-terminal GST-fused wild type human ALK cytoplasmic domain (1058 to 1620 residues ) expressed in baculovirus-infecetd Sf21 cells using Srctide as substrate at 1 uM in presence of ATP by Mobility shift assay.
Test [14] concerns the target Hepatocyte growth factor receptor (Homo sapiens) (UniProt P08581). As to the kind of experiment: Inhibition of N-terminal GST-tagged human MET cytoplasmic domain (956 to 1390 residues ) expressed in baculovirus-infected Sf21 cells using Srctide as substrate at 1 uM in presence of ATP by Mobility shift assay.
Test [15] addresses Tyrosine-protein kinase Fyn (Homo sapiens) (UniProt P06241). As to the kind of experiment: Inhibition of human FYN at 1 uM by mobility shift assay relative to control.
Test [16] concerns the target Aurora kinase A/Targeting protein for Xklp2 (Homo sapiens) (UniProt O14965+Q9ULW0). The test can be described thus: Inhibition of N-terminal GST-fused full length human AurA (1 to 403 residues)/TPX2 expressed in baculovirus-infected Sf21 cells using Kemptide as substrate at 1 uM in presence of ATP by Mobility shift assay.
For test [17], the target named is Interferon-induced, double-stranded RNA-activated protein kinase (Homo sapiens) (UniProt P19525). The test can be described thus: Inhibition of N-terminal GST-fused human PKR catalytic domain (252 to 551 residues) expressed in baculovirus expression system using SRPKtide as substrate at 1 uM in presence of ATP by IMAP.
The target of test [18] is Tyrosine-protein kinase TXK (Homo sapiens) (UniProt P42681). The test can be described thus: Inhibition of N-terminal GST-tagged human TXK catalytic domain (260 to 527 residues) expressed in baculovirus-infected Sf21 cells using Srctide as substrate at 1 uM in presence of ATP by Mobility shift assay.
For test [19], the target named is Fibroblast growth factor receptor 4 (Homo sapiens) (UniProt P22455). The test can be described thus: Inhibition of N-terminal GST-fused human FGFR4 cytoplasmic domain (460 to 802 residues) expressed in baculovirus-infected Sf21 cells using CSKtide as substrate at 1 uM in presence of ATP by Mobility shift assay.
Test [20] has as its target Mitogen-activated protein kinase 3 (Homo sapiens) (UniProt P27361). As to the kind of experiment: Inhibition of N-terminal GST-fused full length human ERK1 (1 to 379 residues) expressed in Escherichia coli expression system using Modified Erktide as substrate at 1 uM in presence of ATP by Mobility shift assay.
Test [21] deals with Protein kinase C beta type (Homo sapiens) (UniProt P05771). As to the kind of experiment: Inhibition of N-terminal GST-fused human full length PKC-beta2 (1 to 673 residues ) expressed in baculovirus expression system using PKC peptide as substrate at 1 uM in presence of ATP by Mobility shift assay.

In the case of `Cc1cc(C)c(CNC(=O)c2cc(Br)c3c(c2C)O[C@@](C)([C@H]2CC[C@H](N(C)C)CC2)O3)c(=O)[nH]1`, the Activity in the test listed under Homo sapiens was 59%. Besides, the inhibition in test [1] was -1.6%; in test [2], -0.1%; in [3] it was -2.1%; in test [4], -5.5%; in [5], 1.8%; in [6] it was -2.5%. Also, the inhibition in test [7] is -4.4%; in test [8], 2.1%; in test [9], -7%; in [10] it was -0.1%; in [11], -1.8%; in test [12] it was -4.7%. Moreover, the inhibition was -2.8% in test [13]; -2.1% in test [14]; 2.6% in test [15]; -4.6% in test [16]; -3% in test [17]; 1.3% in test [18]. Further, the inhibition was -3.7% in [19], -2.6% in test [20] and 3.2% in test [21].
On to `Cc1cc(C)c(CNC(=O)c2cc(Cl)c3c(c2C)O[C@@](C)([C@H]2CC[C@H](N(C)C)CC2)O3)c(=O)[nH]1` [VALEMETOSTAT], for which the Activity in the test filed under Homo sapiens worked out at 62%. Also, the inhibition in test [1] was -3%; in [2] it was 0.8%; in test [3], -3.7%; in test [4], -6.7%; in [5], 8.7%; in [6] it was -3.4%. In addition, the inhibition in test [7] is -5.9%; in [8] it was 5.2%; in test [9] it was -7%; in test [10], 0.7%; in [11], 1.4%; in test [12], -5.6%. Further, the inhibition in [13] was -9.1%; in [14] it was -5%; in test [15], 5.1%; in [16] it was -6.8%; in test [17], 2.9%; in test [18], -7%. Besides, the figures for the inhibition in test [19], in [20] and in test [21] were -5.6%, -4.1% and -1.1%, respectively.
